Measured values from article PMC3559007 (Neuron, 2013).
Numbering of substitutions follows the chain as printed. pIC50: −log10 of the molar value. Where two headings read alike, the source gives them in different places.

Legend:
Hv1 F150A = biological target: T1, Hv1 F150A (Homo sapiens, UniProt Q96D96, F150A); assay: Inside-out patch clamp, inhibition of Hv1 F150A mutant; assay type: cell-based; settings: 1 µM 2GBI, 500 µM guanidinium, 7.9 mM magnesium, intracellular
T1 sequence (Q96D96 1-273 F150A): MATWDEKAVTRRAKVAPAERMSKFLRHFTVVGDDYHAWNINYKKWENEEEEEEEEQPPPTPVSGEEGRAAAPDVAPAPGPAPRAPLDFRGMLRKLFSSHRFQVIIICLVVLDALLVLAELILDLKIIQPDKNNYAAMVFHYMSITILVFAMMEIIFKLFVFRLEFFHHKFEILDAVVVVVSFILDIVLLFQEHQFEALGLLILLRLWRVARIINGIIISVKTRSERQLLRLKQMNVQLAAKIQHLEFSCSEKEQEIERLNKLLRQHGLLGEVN

human Hv1 channel [1] = biological target: T2, human Hv1 channel (Homo sapiens, UniProt Q96D96); assay: Inside-out patch clamp of proton currents, Xenopus oocytes expressing human Hv1; assay type: cell-based; settings: for Inhibition of Hv1 proton current compared with 2GBI: 200 µM intracellular, inside-out patch, +120 mV
T2 sequence (Q96D96 1-273): T1 sequence (Q96D96 1-273 F150A) with A150F

human Hv1 channel [2] = biological target: T2, human Hv1 channel; settings: cited from earlier work; for Inhibition of Hv1 channel by intracellular quaternary ammonium ions: ref Musset et al., 2011, Ramsey et al., 2006
[3] = test system: F150A-WT linked Hv1 heterodimers; assay: Inside-out patch clamp, partial block of linked F150A-WT Hv1 heterodimers; assay type: cell-based, human; settings: 2 µM 2GBI, +120 mV

[Mg+2] [magnesium, reference compound]
Difference in binding affinity between F150A and wild type channels (Hv1 F150A): no difference
pIC50 (human Hv1 channel [1]; wild type Hv1, GBOZ curve extrapolated above solubility limit): ~2.05

CC(=O)N(C(=N)NC(=N)N)c1ccccc1 [Compound 10, N-(guanidino-imino-methyl)-N-phenylacetamide]
Inhibition of Hv1 proton current compared with 2GBI (human Hv1 channel [1]): not as effective as 2GBI

N=C(N)Nc1nc2ccccc2s1 [Compound 12, 1-(1,3-benzothiazol-2-yl)guanidine]
Inhibition of Hv1 proton current compared with 2GBI (human Hv1 channel [1]): almost as effectively as 2GBI

Cc1nc(NC(=N)N)nc2ccccc12 [Compound 9, 2-guanidino-4-methylquinazoline]
Inhibition of Hv1 proton current compared with 2GBI (human Hv1 channel [1]): not as effective as 2GBI

N=C(N)Nc1nc2ccccc2o1 [Compound 11, 1-(1,3-benzoxazol-2-yl)guanidine]
pIC50 (human Hv1 channel [1]): ~2.05

CC[N+](CC)(CC)CC [TEA^+, tetraethylammonium]
Inhibition of Hv1 channel by intracellular quaternary ammonium ions (human Hv1 channel [2]): do not inhibit

C[N+](C)(C)C [TMA^+]
Inhibition of Hv1 channel by intracellular quaternary ammonium ions (human Hv1 channel [2]): do not inhibit

CN(C)C(=N)N=C(N)N [Compound 8, metformin, reference compound]
Inhibition of Hv1 proton current compared with 2GBI (human Hv1 channel [1]): not as effective as 2GBI

N=C(N)N [Compound 1, Guanidine]
Difference in binding affinity between F150A and wild type channels (Hv1 F150A): much smaller difference
Concentration range effective at inhibiting proton currents (human Hv1 channel [1]): millimolar concentration range
Inhibition of Hv1 and effect on activation curve (human Hv1 channel [2]; ref Tombola et al., 2008): inhibit Hv1 without shifting the channel’s activation curve

N=C(N)Nc1nc2ccccc2[nH]1 [Compound 7, 2-guanidinobenzimidazole]
Total inhibition of the initial current [3]: ~ 50%
Estimated fraction of wild type subunits blocked ([3]; estimated from dissociation constants of homodimers): ~6%
